Patent publication US20240108001A1, “Antibacterial Composition” (LG Chem, Ltd., priority 2021, published 2024)

How the values were obtained:
[1] = system: 3T3; experiment: Acute oral toxicity dose LD50 by 3T3 Neutral Red Uptake (NRU) assay (OECD Guidance Document No 129); type: cell-based; conditions: LD50 calculated from 3T3 NRU assay (OECD GD 129)
Experimental: The acute oral toxicity dose LD50 was measured by 3T3 Neutral Red Uptake (NRU) assay (OECD Guidance Document No 129). Specifically, LD50 may be calculated by the following method.

[2] = Critical micelle concentration from surface tension at each concentration (Method 5, Du Nouy ring, force tensiometer); type: physicochemical; conditions: aqueous solutions, measurement repeated three times
Experimental: A solution comprising the compound comprising quaternary ammonium structure is prepared, and the surface tension of the solution is measured at each concentration. A calibration curve of the surface tension at each concentration is obtained, and the critical micelle concentration of the compound comprising the quaternary ammonium structure is obtained therefrom.
In this case, the surface tension at each concentration may be measured using a surface tension meter (force tensiometer) and a Du Nouy ring method.
In addition, the solution may use a solvent such as distilled water, but the solvent is not limited thereto.
The critical micelle concentrations of Monomers 2 and 3 and Comparative Monomer 2 were measured by Method 5, and are shown in the following Table 4 and FIGS. 4 to 6. More specifically, aqueous solutions (30 mL) were prepared for each concentration of Monomers 2 and 3 and Comparative Monomer 2, and the surface tension was measured using the Du Nouyring method of a force tensiometer. Each measurement was repeated three times. The surface tension was measured by preparing diluted solutions until the surface tension was similar to deionized water. The critical micelle concentration (CMC) was confirmed by confirming through the change in surface tension with concentration that each aqueous solution formed a micelle.

| SMILES | Acute oral toxicity dose (mg/Kg) LD50 [1] | Critical micelle concentration (wt %) [2] [wt %] |
| --- | --- | --- |
| C=CC(=O)OCC[N+](CCCC)(CCCC)CCCCCC [Comparative Monomer 1, reference compound] | 2,355 mg/Kg | – |
| C=CC(=O)OCC[N+](CCCCCCCCCCCCCC)(CCCCCCCCCCCCCC)CCCCCCCCCCCCCC [Comparative Monomer 2, reference compound] | 231 mg/kg | 0.06 ± 0.01 |
| C=CC(=O)OCC[N+](CCCC)(CCCC)CCCCCCCCCC [Monomer 2] | – | 1.5 ± 0.3 |
| C=CC(=O)OCC[N+](CCCC)(CCCC)CCCCCCCCCCCC [Monomer 3] | 843 mg/kg | 0.25 ± 0.05 |
| C=C(C)C(=O)OCC[N+](CCCC)(CCCCCCCC)CCCCCCCCCC (centres unmarked) [Monomer 7] | 998 mg/kg | – |
| C=C(C)C(=O)OCC[N+](CCCC)(CCCCCCCCCC)CCCCCCCCCC [Monomer 8] | 869 mg/kg | – |
